Measurements from ChEMBL document CHEMBL3085759, “Structure-activity relationship (SAR) and preliminary mode of action studies of 3-substituted benzylthioquinolinium iodide as anti-opportunistic infection agents” (Eur J Med Chem, 2013).
In brackets after ≈: the same amount, converted by molar mass. Activity calls are given as the source filed them. The calls are words filed in the database; no cut-off is given here.

Columns and labels:
[1] = system: Nakaseomyces glabratus; assay: Antimicrobial activity against Candida glabrata by Alamar blue method; assay type: functional, organism-based
[2] = system: Pichia kudriavzevii; assay: Antimicrobial activity against Candida krusei ATCC 6258 by Alamar blue method; assay type: functional, organism-based
[3] = system: Cryptococcus neoformans; assay: Antimicrobial activity against Cryptococcus neoformans ATCC 90113 by Alamar blue method; assay type: functional, organism-based
[4] = system: Vero; assay: Cytotoxicity against african green monkey Vero cells at 10 ug/ml after 48 hrs by Neutral Red dye assay; assay type: cell-based; conditions: chlorocebus sabaeus
[5] = system: Nakaseomyces glabratus; assay: Antimicrobial activity against Candida glabrata at 20 ug/ml by Alamar blue method; assay type: functional, organism-based
[6] = system: Candida albicans; assay: Antimicrobial activity against Candida albicans ATCC 90028 by Alamar blue method; assay type: functional, organism-based
[7] = system: Saccharomyces cerevisiae; assay: Antimicrobial activity against Saccharomyces cerevisiae expressing snf2 mutant gene assessed as increase in sensitivity at 20 umol/L by spectrophotometry relative to wild type; assay type: functional
[8] = system: Saccharomyces cerevisiae; assay: Antimicrobial activity against Saccharomyces cerevisiae expressing ydj1 mutant gene assessed as increase in sensitivity at 20 umol/L by spectrophotometry relative to wild type; assay type: functional
[9] = system: Mycobacterium intracellulare; assay: Antimicrobial activity against Mycobacterium intracellulare ATCC 23068 by Alamar blue method; assay type: functional, organism-based
[10] = system: Aspergillus fumigatus; assay: Antimicrobial activity against Aspergillus fumigatus ATCC 204305 by Alamar blue method; assay type: functional, organism-based
[11] = Selectivity index, ratio of TC50 for african green monkey Vero cells to IC50 for Cryptococcus neoformans ATCC 90113; assay type: toxicity, cell-based; conditions: read-out: Selectivity Index
[12] = system: Cryptococcus neoformans; assay: Ratio of amphotericin B IC50 to compound IC50 for Cryptococcus neoformans ATCC 90113 by Alamar blue method; assay type: functional
[13] = system: Pichia kudriavzevii; assay: Ratio of amphotericin B IC50 to compound IC50 for Candida krusei ATCC 6258 by Alamar blue method; assay type: functional
[14] = system: Saccharomyces cerevisiae; assay: Antimicrobial activity against Saccharomyces cerevisiae expressing msh2 mutant gene assessed as increase in sensitivity at 20 umol/L by spectrophotometry relative to wild type; assay type: functional
[15] = system: Pichia kudriavzevii; assay: Ratio of fluconazole MFC to compound MFC for Candida krusei ATCC 6258 by Alamar blue method; assay type: functional
[16] = Cytotoxicity against african green monkey Vero cells after 48 hrs by Neutral Red dye assay; assay type: cell-based; conditions: chlorocebus sabaeus, read-out: TC50
[17] = system: Staphylococcus aureus; assay: Antimicrobial activity against Staphylococcus aureus ATCC 29213 by Alamar blue method; assay type: functional, organism-based; conditions: Staphylococcus aureus, ATCC 29213; for IC50: read-out: IC50
[18] = system: Saccharomyces cerevisiae; assay: Antimicrobial activity against wild type Saccharomyces cerevisiae assessed as increase in sensitivity measured as survival at 20 umol/L by spectrophotometry relative to control; assay type: functional
[19] = system: Staphylococcus aureus; assay: Antimicrobial activity against methicillin-resistant Staphylococcus aureus ATCC 33591 by Alamar blue method; assay type: functional, organism-based
[20] = system: Saccharomyces cerevisiae; assay: Antimicrobial activity against Saccharomyces cerevisiae expressing rad52 mutant gene assessed as increase in sensitivity at 20 umol/L by spectrophotometry relative to wild type; assay type: functional
[21] = system: Saccharomyces cerevisiae; assay: Antimicrobial activity against Saccharomyces cerevisiae expressing rad52 mutant gene assessed as sensitivity at 50 umol/L by spectrophotometry; assay type: functional, organism-based
[22] = system: Saccharomyces cerevisiae; assay: Antimicrobial activity against Saccharomyces cerevisiae expressing msh2 mutant gene assessed as sensitivity at 50 umol/L by spectrophotometry; assay type: functional, organism-based
[23] = system: Saccharomyces cerevisiae; assay: Antimicrobial activity against wild type Saccharomyces cerevisiae assessed as sensitivity at 50 umol/L by spectrophotometry; assay type: functional, organism-based
[24] = system: Saccharomyces cerevisiae; assay: Antimicrobial activity against Saccharomyces cerevisiae expressing msh2 mutant gene assessed as sensitivity at 20 umol/L by spectrophotometry; assay type: functional, organism-based
[25] = system: Saccharomyces cerevisiae; assay: Antimicrobial activity against Saccharomyces cerevisiae expressing snf2 mutant gene assessed as sensitivity at 50 umol/L by spectrophotometry; assay type: functional, organism-based
[26] = system: Saccharomyces cerevisiae; assay: Antimicrobial activity against Saccharomyces cerevisiae expressing ydj1 mutant gene assessed as sensitivity at 20 umol/L by spectrophotometry; assay type: functional, organism-based
[27] = Selectivity index, ratio of TC50 for african green monkey Vero cells to MIC for Aspergillus fumigatus ATCC 204305; assay type: toxicity, cell-based; conditions: read-out: Selectivity Index
[28] = system: Saccharomyces cerevisiae; assay: Antimicrobial activity against Saccharomyces cerevisiae expressing ydj1 mutant gene assessed as sensitivity at 50 umol/L by spectrophotometry; assay type: functional, organism-based
[29] = system: Saccharomyces cerevisiae; assay: Antimicrobial activity against Saccharomyces cerevisiae expressing msh2 mutant gene assessed as increase in sensitivity measured as survival at 20 umol/L by spectrophotometry relative to wild type; assay type: functional
[30] = in vitro; conditions: monkey, Vero cells
Description: Selectivity index, ratio of TC50 for african green monkey Vero cells to IC50 for Aspergillus fumigatus ATCC 204305

[31] = system: Nakaseomyces glabratus; assay: Ratio of fluconazole MFC to compound MFC for Candida glabrata by Alamar blue method; assay type: functional

OC(Cn1cncn1)(Cn1cncn1)c1ccc(F)cc1F [FLUCONAZOLE]
IC50 [1]: 27 µg/mL (≈ 88.2 µM) | MFC [1]: inactive | MIC [1]: inactive | IC50 [2]: 27 µg/mL (≈ 88.2 µM) | MFC [2]: 50 µg/mL (≈ 163 µM) | MIC [2]: 50 µg/mL (≈ 163 µM) | IC50 [3]: 0.21 µg/mL (≈ 0.686 µM) | MFC [3]: 13 µg/mL (≈ 42.4 µM) | MIC [3]: 6.3 µg/mL (≈ 20.6 µM) | Activity [4]: Non-toxic | Activity [5]: inactive | IC50 [6]: 0.12 µg/mL (≈ 0.392 µM) | MFC [6]: inactive | MIC [6]: inactive

Clc1ccc(CSc2cc3ccccc3[n+](CCCCCC3CCCCC3)c2)cc1.[I-]
fold change (FC) [7]: 10 | fold change (FC) [8]: 7.5 | IC50 [1]: 0.44 µg/mL | MFC [1]: 1.3 µg/mL | MIC [1]: 1.3 µg/mL | IC50 [9]: 1.6 µg/mL | MBC [9]: 2.5 µg/mL | MIC [9]: 2.5 µg/mL | IC50 [10]: 0.69 µg/mL | MFC [10]: 1.3 µg/mL | MIC [10]: 1.3 µg/mL | selectivity ratio [11]: 26 | Ratio IC50 [12]: 4 | Ratio IC50 [13]: 3 | IC50 [2]: 0.07 µg/mL | MFC [2]: 0.16 µg/mL | MIC [2]: 0.16 µg/mL | fold change (FC) [14]: 1.1 | Ratio IC50 [15]: 310 | MFC [3]: 0.08 µg/mL | MIC [3]: 0.08 µg/mL | CC50 at 48 h [16]: 1.3 µg/mL | IC50 [6]: 0.33 µg/mL | MFC [6]: 0.63 µg/mL | MIC [6]: 0.63 µg/mL | MBC [17]: 0.31 µg/mL | MIC [17]: 0.16 µg/mL | IC50 [17]: 0.05 µg/mL | Activity [18]: 31% | IC50 [19]: 0.06 µg/mL | MBC [19]: 0.31 µg/mL | MIC [19]: 0.16 µg/mL | fold change (FC) [20]: 2.9

C[n+]1c2ccccc2cc2[n-]c3ccccc3c21 [CRYPTOLEPINE]
Activity [21]: Active | Activity [22]: Active | fold change (FC) [7]: 1.7 | Activity [23]: Active | Activity [24]: inactive | Activity [25]: Active | Activity [26]: inactive | selectivity ratio [27]: < 0.13 | Activity [28]: Active | Activity [29]: 29% | MFC [3]: > 25 µg/mL | MIC [3]: 12.5 µg/mL (≈ 53.8 µM) | fold change (FC) [20]: 3.5

C[C@@H]1[C@H](O)[C@@H](C)/C=C/C=C/C=C/C=C/C=C/C=C/C=C/[C@H](O[C@@H]2O[C@H](C)[C@@H](O)[C@H](N)[C@@H]2O)C[C@@H]2O[C@](O)(C[C@@H](O)C[C@@H](O)[C@H](O)CC[C@@H](O)C[C@@H](O)CC(=O)O[C@H]1C)C[C@H](O)[C@H]2C(=O)O [AMPHOTERICIN B]
IC50 [1]: 0.22 µg/mL (≈ 0.238 µM) | MFC [1]: 1.3 µg/mL (≈ 1.41 µM) | MIC [1]: 0.63 µg/mL (≈ 0.682 µM) | MFC [10]: 5 µg/mL (≈ 5.41 µM) | MIC [10]: 1.3 µg/mL (≈ 1.41 µM) | IC50 [2]: 0.22 µg/mL (≈ 0.238 µM) | MFC [2]: 1.3 µg/mL (≈ 1.41 µM) | MIC [2]: 0.62 µg/mL (≈ 0.671 µM) | selectivity ratio [30]: 38 | IC50 [3]: 0.2 µg/mL (≈ 0.216 µM) | MFC [3]: 0.63 µg/mL (≈ 0.682 µM) | MIC [3]: 0.63 µg/mL (≈ 0.682 µM) | MFC [6]: 1.3 µg/mL (≈ 1.41 µM) | MIC [6]: 0.62 µg/mL (≈ 0.671 µM)

COc1cccc2c1C(=O)c1c(O)c3c(c(O)c1C2=O)C[C@@](O)(C(=O)CO)C[C@@H]3O[C@H]1C[C@H](N)[C@H](O)[C@H](C)O1 [DOXORUBICIN]
fold change (FC) [20]: >100

Cc1cccc(CSc2cc3ccccc3[n+](CCCCCC3CCCCC3)c2)c1.[I-]
IC50 [1]: 3.3 µg/mL | MFC [1]: 10 µg/mL | MIC [1]: 5 µg/mL | IC50 [9]: 7.2 µg/mL | MBC [9]: 10 µg/mL | MIC [9]: 10 µg/mL | IC50 [10]: 5.8 µg/mL | MFC [10]: 10 µg/mL | MIC [10]: 10 µg/mL | IC50 [2]: 0.67 µg/mL | MFC [2]: 2.5 µg/mL | MIC [2]: 2.5 µg/mL | MFC [3]: 0.63 µg/mL | MIC [3]: 0.63 µg/mL | CC50 at 48 h [16]: 5 µg/mL | IC50 [6]: 2 µg/mL | MFC [6]: 5 µg/mL | MIC [6]: 5 µg/mL | MBC [17]: 2.5 µg/mL | MIC [17]: 1.3 µg/mL | IC50 [17]: 0.64 µg/mL | IC50 [19]: 0.72 µg/mL | MBC [19]: 2.5 µg/mL | MIC [19]: 1.3 µg/mL

Cc1ccc(CSc2cc3ccccc3[n+](CCCCCC3CCCCC3)c2)cc1.[I-]
IC50 [1]: 3.1 µg/mL | MFC [1]: 5 µg/mL | MIC [1]: 5 µg/mL | IC50 [9]: 7.5 µg/mL | MBC [9]: 10 µg/mL | MIC [9]: 10 µg/mL | IC50 [10]: 4.5 µg/mL | MFC [10]: 10 µg/mL | MIC [10]: 10 µg/mL | IC50 [2]: 0.27 µg/mL | MFC [2]: 1.3 µg/mL | MIC [2]: 1.3 µg/mL | MFC [3]: 0.31 µg/mL | MIC [3]: 0.31 µg/mL | CC50 at 48 h [16]: 6.8 µg/mL | IC50 [6]: 1.4 µg/mL | MFC [6]: 5 µg/mL | MIC [6]: 2.5 µg/mL | MBC [17]: 2.5 µg/mL | MIC [17]: 0.63 µg/mL | IC50 [17]: 0.39 µg/mL | IC50 [19]: 0.49 µg/mL | MBC [19]: 2.5 µg/mL | MIC [19]: 1.3 µg/mL

[I-].c1ccc2cc(Sc3cc4ccccc4[n+](CCCCCC4CCCCC4)c3)ccc2c1
IC50 [1]: 0.87 µg/mL | MFC [1]: 2.5 µg/mL | MIC [1]: 2.5 µg/mL | IC50 [9]: 4.2 µg/mL | MBC [9]: 10 µg/mL | MIC [9]: 5 µg/mL | Ratio [31]: 79 | IC50 [10]: 1.2 µg/mL | MFC [10]: 2.5 µg/mL | MIC [10]: 2.5 µg/mL | selectivity ratio [11]: > 111 | IC50 [2]: 0.09 µg/mL | MFC [2]: 0.63 µg/mL | MIC [2]: 0.63 µg/mL | Ratio [15]: 79 | IC50 [3]: 0.09 µg/mL | MFC [3]: 0.16 µg/mL | MIC [3]: 0.16 µg/mL | IC50 [6]: 0.42 µg/mL | MFC [6]: 2.5 µg/mL | MIC [6]: 1.3 µg/mL | MBC [17]: 2.5 µg/mL | MIC [17]: 0.63 µg/mL | IC50 [17]: 0.34 µg/mL | IC50 [19]: 0.35 µg/mL | MBC [19]: 2.5 µg/mL | MIC [19]: 0.63 µg/mL
